The values below are quoted from earlier work in patent US20060160230A1, “Wipes and methods for removal of metal contamination from surfaces” (The Government of the United States of America as …, priority 2005, published 2006).

The conditions of series [1]: 1999; rinse-off cosmetic products.
For series [2] the following is noted: 10% citric acid lotion applied topically for a three month period (Bernstein et al. 1997).

Consider “isostearamidopropyl morpholine lactate [ISML]”, for which the “safety conclusion of CIR Expert Panel” value in series [1] was “considered safe for use in rinse-off cosmetic products”. For the compound `O=C(O)CC(O)(CC(=O)O)C(=O)O` [citric acid], in series [2], the “clinical signs of adverse effects” value is listed as “No clinical signs of adverse effects”.
